Where two headings read alike, the source gives them in different places. Marks after values point to notes of the source that are not given here.
What was measured:
Assay type in all cases: biochemical, M. tuberculosis
[1] = molecular target: T1, MshC (Mycobacterium tuberculosis, UniProt P9WJM9); conditions: for activity as alternative substrate to Cys, in words: 80 μM to 1.6 mM
T1 sequence (P9WJM9 1-414): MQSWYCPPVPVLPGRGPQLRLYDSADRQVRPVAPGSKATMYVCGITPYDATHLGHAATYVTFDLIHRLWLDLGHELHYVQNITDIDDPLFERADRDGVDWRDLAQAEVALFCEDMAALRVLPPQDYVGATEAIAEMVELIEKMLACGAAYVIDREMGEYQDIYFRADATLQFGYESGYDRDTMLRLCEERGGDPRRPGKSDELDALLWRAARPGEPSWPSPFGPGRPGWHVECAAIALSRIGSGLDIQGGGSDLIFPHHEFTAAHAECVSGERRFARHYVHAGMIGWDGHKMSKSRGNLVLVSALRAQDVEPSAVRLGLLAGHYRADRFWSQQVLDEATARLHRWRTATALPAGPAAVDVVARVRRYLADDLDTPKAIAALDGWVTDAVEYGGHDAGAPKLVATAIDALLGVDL

[2] = molecular target: T1, MshC; experiment: Inhibition studies of MshC ligase activity (HEPES pH 7.5, HPLC); conditions: for % inhibition: 50 μM GlcN-Ins and 70 μM Cys
[3] = molecular target: T1, MshC; experiment: biochemical
[4] = 80-1600 μM, 70 μM L-Cys and 50 μM GlcN-Ins

## CC(=O)N[C@@H](CS)C(=O)O [AcCys, N-acetylcysteine]
[1]
  relative spec. act.: ≦0.24
  activity as alternative substrate to Cys, in words: Nor was significant activity detected
[2]; [4]
  inhibition of the ligase activity, in words: minor inhibition
[2]; [inhibitor] 1600 μM
  % inhibition: 20 ± 6%

## N[C@@H](CS)C(=O)O [Cys, L-cysteine]
[1]
  apparent Vmax: 1450 ± 200 nmol/min/mg
[1]; Cys 70 μM, 50 μM GlcN-Ins, 37° C.
  Specific activity: ^cSpecific activity 108 nmol min^−1 mg^−1.
[1]; Cys 70 μM, reference
  relative spec. act.: (100)^c
[1]; as stated in the feedback inhibition paragraph, read-out: apparent Km value for Cys
  Km: 70 ± 15 µM
[1]; pH 7.5, read-out: apparent Km for L-Cys
  Km: 85 ± 20 µM

## N[C@@H](CS)C(=O)N[C@H]1[C@@H](OC2[C@H](O)[C@H](O)C(O)[C@H](O)[C@H]2O)O[C@H](CO)[C@@H](O)[C@@H]1O (stereo partly shown) [Cys-GlcN-Ins, cysteinyl glucosaminyl inositol]
[2]
  inhibition (feedback): < 1.0%

## N[C@H](CS)C(=O)O [D-Cys]
[1]
  relative spec. act.: ≦0.7
  activity as alternative substrate to Cys, in words: poor substrate
[2]; [4]
  inhibition of the ligase activity, in words: very minor inhibition
[2]; [inhibitor] 1600 μM
  % inhibition: 15 ± 8%

## N[C@H]1C(O)O[C@H](CO)[C@@H](O)[C@@H]1O (stereo partly drawn) [D-GlcN]
[1]
  activity relative to GlcN-Ins: ~1%
  relative spec. act.: 1.2

## N[C@H]1[C@@H](O[C@@H]2[C@H](O)[C@H](O)[C@@H](O)[C@H](O)[C@H]2O)O[C@H](CO)[C@@H](O)[C@@H]1O [GlcN-Ins, 1-O-(2-amino-2-deoxy-α-D-glucopyranosyl)-D-myo-inositol]
[1]; GlcN-Ins varied, 1 mM ATP and 0.5 mM Cys
  apparent Vmax: 1160 ± 120 nmol/min/mg
[1]; pH 7.5, read-out: apparent Km for GlcN-Ins
  Km: 280 ± 43 µM

## CCC1CCCCN1CCCNC(=O)c1ccc2c(c1)N(Cc1ccccc1F)C(=O)c1ccccc1[S+]2[O-] (stereo not shown) [Inhibitor 1137]
[3]
  inhibition of MshC in words, 1,3-diaminopropyl residue with remote amino residue capable of protonation: measurable inhibition
  inhibition of MshC in words, Z is a benzyl moiety bearing one or more halogens: Measurable inhibition
[3]; IC50, μM
  IC50: 1400 ± 700 µM
[3]; X=S, X=SO, X=SO2
  inhibition of MshC in words, compounds grouped by X: Significant inhibition

## CC1CC(C)CN(CCCNC(=O)c2ccc3c(c2)N(Cc2ccccc2F)C(=O)c2ccccc2S3(=O)=O)C1 (stereo not shown) [Inhibitor 1138]
[3]; IC50, μM
  IC50: > 3000 µM

## Cc1ccc(C)c(CN2C(=O)c3ccccc3S(=O)(=O)c3ccc(C(=O)NCCN4CCCCC4)cc32)c1 [Inhibitor 1173]
[3]; IC50, μM
  IC50: > 2000 µM

## Cc1ccc(CN2C(=O)c3ccccc3Sc3ccc(C(=O)NCC(C)CN4CCC(C)CC4)cc32)cc1 (stereo not shown) [Inhibitor 1671]
[3]; IC50, μM
  IC50: > 3000 µM

## Cc1ccc(CN2C(=O)c3ccccc3Sc3ccc(C(=O)NCCCN4CC(C)CC(C)C4)cc32)cc1 (stereo not shown) [Inhibitor 1672]
[3]; IC50, μM
  IC50: > 3000 µM

## CCN1C(=O)c2ccccc2Sc2ccc(C(=O)NCCCN(CC(C)C)CC(C)C)cc21 [Inhibitor 1751]
[3]; IC50, μM
  IC50: > 3000 µM

## CCN1C(=O)c2ccccc2Sc2ccc(C(=O)NCCCN3CCCCC3)cc21 [Inhibitor 1754]
[3]; IC50, μM
  IC50: ~2000 µM
[3]; X=S, X=SO, X=SO2
  inhibition of MshC in words, compounds grouped by X: Significant inhibition

## O=C(NCCCN1CCCCC1)c1ccc2c(c1)N(Cc1cccc(Cl)c1)C(=O)c1ccccc1S2 [Inhibitor 1776]
[3]
  inhibition of MshC in words, 1,3-diaminopropyl residue with remote amino residue capable of protonation: measurable inhibition
  inhibition of MshC in words, Z is a benzyl moiety bearing one or more halogens: Measurable inhibition
[3]; IC50, μM
  IC50: 320 ± 50 µM
[3]; X=S, X=SO, X=SO2
  inhibition of MshC in words, compounds grouped by X: Significant inhibition

## O=C(NCCCN1CCCC1)c1ccc2c(c1)N(Cc1cccc(Cl)c1)C(=O)c1ccccc1S2 [Inhibitor 1779]
[3]
  inhibition of MshC in words, 1,3-diaminopropyl residue with remote amino residue capable of protonation: measurable inhibition
  inhibition of MshC in words, Z is a benzyl moiety bearing one or more halogens: Measurable inhibition
[3]; IC50, μM
  IC50: 135 ± 30 µM
[3]; X=S, X=SO, X=SO2
  inhibition of MshC in words, compounds grouped by X: Significant inhibition

## O=C(NCc1cccs1)c1ccc2c(c1)N(Cc1cccc(Cl)c1)C(=O)c1ccccc1S2 [Inhibitor 1781]
[3]; IC50, μM
  IC50: > 3000 µM

## CCC1CCCCN1CCNC(=O)c1ccc2c(c1)N(Cc1ccc(F)cc1Cl)C(=O)c1ccccc1S2 (stereo not shown) [Inhibitor 1806]
[3]
  inhibition of MshC in words, Z is a benzyl moiety bearing one or more halogens: Measurable inhibition
[3]; IC50, μM
  IC50: ~750 µM
[3]; X=S, X=SO, X=SO2
  inhibition of MshC in words, compounds grouped by X: Significant inhibition

## CN(CCCNC(=O)c1ccc2c(c1)N(Cc1ccccc1Cl)C(=O)c1ccccc1S2)c1ccccc1 [Inhibitor 1920]
[3]
  inhibition of MshC in words, compounds lacking the basic amino group or with groups in excess of 10 carbons on the remote amino residue: little or no inhibition
[3]; IC50, μM
  IC50: > 3000 µM

## O=C(NCCCN1CCOCC1)c1ccc2c(c1)N(Cc1cccc(Cl)c1)C(=O)c1ccccc1S2 [Inhibitor 1937]
[3]
  inhibition of MshC in words, 1,3-diaminopropyl residue with remote amino residue capable of protonation: measurable inhibition
  inhibition of MshC in words, Z is a benzyl moiety bearing one or more halogens: Measurable inhibition
[3]; IC50, μM
  IC50: 780 ± 120 µM
[3]; X=S, X=SO, X=SO2
  inhibition of MshC in words, compounds grouped by X: Significant inhibition

## CN(CCCNC(=O)c1ccc2c(c1)N(Cc1cccc(Cl)c1)C(=O)c1ccccc1[S+]2[O-])C1CCCCC1 (stereo not shown) [Inhibitor 1938]
[3]
  inhibition of MshC in words, 1,3-diaminopropyl residue with remote amino residue capable of protonation: measurable inhibition
  inhibition of MshC in words, Z is a benzyl moiety bearing one or more halogens: Measurable inhibition
[3]; IC50, μM
  IC50: 102 ± 4 µM
[3]; X=S, X=SO, X=SO2
  inhibition of MshC in words, compounds grouped by X: Significant inhibition

## CCOCCCNC(=O)c1ccc2c(c1)N(Cc1cccc(Cl)c1)C(=O)c1ccccc1[S+]2[O-] (stereo not shown) [Inhibitor 1939]
[3]
  inhibition of MshC in words, compounds lacking the basic amino group or with groups in excess of 10 carbons on the remote amino residue: little or no inhibition
[3]; IC50, μM
  IC50: 3200 ± 1000 µM

## CCCCN(CCCNC(=O)c1ccc2c(c1)N(Cc1cccc(Cl)c1)C(=O)c1ccccc1[S+]2[O-])Cc1ccccc1 (stereo not shown) [Inhibitor 1940]
[3]
  inhibition of MshC in words, compounds lacking the basic amino group or with groups in excess of 10 carbons on the remote amino residue: little or no inhibition
[3]; IC50, μM
  IC50: > 3000 µM

## CN(CCc1ccccc1)C(=O)c1ccc2c(c1)N(Cc1cccc(Cl)c1)C(=O)c1ccccc1S2(=O)=O [Inhibitor 1943]
[3]; IC50, μM
  IC50: > 3000 µM

## O=C(NCC1CCCN1)c1ccc2c(c1)N(Cc1cccc(Cl)c1)C(=O)c1ccccc1S2(=O)=O (stereo not shown) [Inhibitor 1947]
[3]
  inhibition of MshC in words, Z is a benzyl moiety bearing one or more halogens: Measurable inhibition
  inhibition of MshC in words, compounds grouped by X: Significant inhibition
[3]; IC50, μM
  IC50: 2300 ± 300 µM

## O=C(NCCCN1CCC(Cc2ccccc2)CC1)c1ccc2c(c1)N(Cc1cccc(Cl)c1)C(=O)c1ccccc1S2(=O)=O [Inhibitor 1949]
[3]
  inhibition of MshC in words, compounds lacking the basic amino group or with groups in excess of 10 carbons on the remote amino residue: little or no inhibition
[3]; IC50, μM
  IC50: > 3000 µM

## CCC1CCCCN1CCCNC(=O)c1ccc2c(c1)N(Cc1cccc(Cl)c1)C(=O)c1ccccc1S2(=O)=O (stereo not shown) [Inhibitor 1954]
[3]
  inhibition of MshC in words, 1,3-diaminopropyl residue with remote amino residue capable of protonation: measurable inhibition
  inhibition of MshC in words, Z is a benzyl moiety bearing one or more halogens: Measurable inhibition
[3]; IC50, μM
  IC50: 1100 ± 200 µM
[3]; X=S, X=SO, X=SO2
  inhibition of MshC in words, compounds grouped by X: Significant inhibition

## O=C(NCCCSC1CCCCC1)c1ccc2c(c1)N(Cc1cccc(Cl)c1)C(=O)c1ccccc1S2(=O)=O [Inhibitor 1964]
[3]
  inhibition of MshC in words, compounds lacking the basic amino group or with groups in excess of 10 carbons on the remote amino residue: little or no inhibition
[3]; IC50, μM
  IC50: > 3000 µM

## CCCCN(C)CCCNC(=O)c1ccc2c(c1)N(Cc1cccc(Cl)c1)C(=O)c1ccccc1S2(=O)=O [Inhibitor 1965]
[3]
  inhibition of MshC in words, 1,3-diaminopropyl residue with remote amino residue capable of protonation: measurable inhibition
  inhibition of MshC in words, Z is a benzyl moiety bearing one or more halogens: Measurable inhibition
[3]; IC50, μM
  IC50: 1700 ± 300 µM
[3]; X=S, X=SO, X=SO2
  inhibition of MshC in words, compounds grouped by X: Significant inhibition

## CCN(C(=O)c1ccc2c(c1)N(Cc1cccc(Cl)c1)C(=O)c1ccccc1S2(=O)=O)c1ccccc1 [Inhibitor 1966]
[3]; IC50, μM
  IC50: > 3000 µM

## COC(=O)c1cc2c(cc1NC(=O)c1ccc3c(c1)N(Cc1cccc(Cl)c1)C(=O)c1ccccc1[S+]3[O-])OCCO2 (stereo not shown) [Inhibitor 1984]
[3]; IC50, μM
  IC50: > 3000 µM

## COC(=O)c1cc(NC(=O)c2ccc3c(c2)N(Cc2cccc(Cl)c2)C(=O)c2ccccc2[S+]3[O-])cc(C(=O)OC)c1 (stereo not shown) [Inhibitor 1986]
[3]; IC50, μM
  IC50: > 3000 µM

## C[C@H](N)C(=O)O [L-alanine]
[1]
  relative spec. act.: ≦0.016
  activity as alternative substrate to Cys, in words: Nor was significant activity detected
[2]; [4]
  inhibition of the ligase activity, in words: very minor inhibition
[2]; [inhibitor] 5000 μM
  % inhibition: 4 ± 8%

## N[C@@H](CCS)C(=O)O [L-homocysteine]
[1]
  relative spec. act.: ≦0.2
  activity as alternative substrate to Cys, in words: Nor was significant activity detected
[2]; [4]
  inhibition of the ligase activity, in words: very minor inhibition
[2]; [inhibitor] 1600 μM
  % inhibition: 0 ± 5%

## CC[C@H](N)C(=O)O [L-α-aminobutyric acid]
[2]; [4]
  inhibition of the ligase activity, in words: very minor inhibition

## CC(=O)N[C@@H](CS)C(=O)N[C@H]1[C@@H](OC2[C@H](O)[C@H](O)C(O)[C@H](O)[C@H]2O)O[C@H](CO)[C@@H](O)[C@@H]1O (stereo partly drawn) [MSH, 1-D-myo-inosityl 2-(N-acetyl-L-cysteinyl)amido-2-deoxy-α-D-glucopyranoside]
[2]; 1 and 5 mM, physiologic levels
  inhibition of the ligase activity, in words: minimal inhibition
[2]; [inhibitor] 1000 μM
  % inhibition: 4 ± 3%
[2]; [inhibitor] 5000 μM
  % inhibition: 7 ± 5%

## CN(CCCNC(=O)c1ccc2c(c1)N(Cc1cccc(Cl)c1)C(=O)c1ccccc1[S+]2[O-])C1CCCCC1 (stereo not shown) [NTF1836]
[3]; 50, 100 and 200 μM in 0.005% Triton X-100, reciprocal plot of velocity versus inhibitor concentration, read-out: IC50
  IC50: ~100 µM
[3]; read-out: IC50 for MshC activity in an vitro enzyme assay
  IC50: 100 µM

Reference: patent publication US20100022509A1, “Inhibitors of MshC and Homologs Thereof, and Methods of Identifying Same” (priority 2006, published 2010)
